Laboratory results as given in US20100048462A1, “TRUNCATED PTH PEPTIDES WITH A CYCLIC CONFORMATION” (Zealand Pharma A/S, priority 2006, published 2010).
“Also recorded” adds a separate entry of the source. Bridge positions count the residues as written; N and C are the ends. Square brackets hold non-standard residues; d marks the D form. Peptide text beside a SMILES is read from it. hArg = N=C(N)NCCCC[C@H](N)C(=O)O; Ac5c = NC1(C(=O)O)CCCC1; Aib = CC(C)(N)C(=O)O

How the values were obtained:
PTH receptor 1 = biological target: T1, PTH receptor 1 (Mus musculus, UniProt P41593); test: MC3T3-E1 cAMP efficacy assay; assay type: cell-based, murine; conditions: MC3T3-E1 cells; for EC50: 100 μM IBMX, 37° C.; for Emax ± SEM [pmol/well]: maximally inducible cAMP
T1 construct: host or cells: MC3T3-E1 subclone 4
T1 sequence (P41593 27-591): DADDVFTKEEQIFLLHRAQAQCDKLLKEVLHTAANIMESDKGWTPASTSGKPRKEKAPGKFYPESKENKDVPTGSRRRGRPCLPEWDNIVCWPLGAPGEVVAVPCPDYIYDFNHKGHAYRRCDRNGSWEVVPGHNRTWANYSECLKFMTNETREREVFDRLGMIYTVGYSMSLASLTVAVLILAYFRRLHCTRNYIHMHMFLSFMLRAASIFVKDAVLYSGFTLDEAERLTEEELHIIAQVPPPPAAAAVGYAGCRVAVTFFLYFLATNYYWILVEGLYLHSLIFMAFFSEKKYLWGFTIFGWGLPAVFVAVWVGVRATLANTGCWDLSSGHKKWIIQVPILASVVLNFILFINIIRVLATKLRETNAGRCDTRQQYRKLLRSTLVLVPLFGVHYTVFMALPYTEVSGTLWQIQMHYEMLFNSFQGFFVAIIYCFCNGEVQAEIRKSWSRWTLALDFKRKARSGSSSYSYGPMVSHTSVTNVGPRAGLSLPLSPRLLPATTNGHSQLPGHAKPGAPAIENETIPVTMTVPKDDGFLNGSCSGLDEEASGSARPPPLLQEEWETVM
Experimental: MC3T3-E1 cells were seeded at 10,000 cells/well in 96-microtiter plates and grown overnight before the efficacy assays. On the day of analysis the growth medium was carefully removed by suction. Cells were washed once with 200 μl TB/0.1% […]. The buffer was replaced with 100 μl reaction mixture (±test peptide, +100 μM IBMX) and incubated at 37° C. for 13 min. The reaction was stopped by addition of 25 μl of ice-cold 0.5 M HCl. Cells were in the following incubated on ice for 60 min. 75 μl acetate-buffer were added to each well in a 96-well cAMP FlashPlate. […] FlashPlates were incubated overnight at 4° C., emptied by suction and counted in a TopCounter.
Determinations were performed in triplicates at all doses. Standards were included as single determinations, duplicates or triplicates in each experiment, preferentially on each plate.
Efficacy was evaluated in the concentration range from […].
Concentration-dependent cAMP responses were imported into GraphPad Prism vers. 4, transformed and plotted. Curves were fitted with a function for sigmoidal dose response curve non-linear fit Y=Bottom+(Top-Bottom)/(1+10̂((LogEC50-X))) where X is the logarithm of concentration and Y is the response. Y starts at Bottom and goes to Top with a sigmoid shape. pEC50 and the maximally inducible concentration of cAMP were evaluated. Overall statistical differences were analyzed using one-way ANOVA. Post-hoc comparisons were made by the use of Fisher's Least Significance Test. Results were considered significant, when p was lower than 0.05.

Saos-2 PTH1R = biological target: T2, Saos-2 PTH1R (Homo sapiens, UniProt Q03431); test: cAMP-efficacy assay in Saos-2 cells; assay type: cell-based; conditions: for potency compared to linear / non-stabilized counterparts, in words / EC50: cAMP; for EC50: 100 μM IBMX, 37° C. 15 min, suffix of label = salt tested; for Emax ± SEM: relative effect to the control (SEQ ID NO: 32)
T2 construct: endogenous in cells; host or cells: Saos-2
T2 sequence (Q03431 27-593): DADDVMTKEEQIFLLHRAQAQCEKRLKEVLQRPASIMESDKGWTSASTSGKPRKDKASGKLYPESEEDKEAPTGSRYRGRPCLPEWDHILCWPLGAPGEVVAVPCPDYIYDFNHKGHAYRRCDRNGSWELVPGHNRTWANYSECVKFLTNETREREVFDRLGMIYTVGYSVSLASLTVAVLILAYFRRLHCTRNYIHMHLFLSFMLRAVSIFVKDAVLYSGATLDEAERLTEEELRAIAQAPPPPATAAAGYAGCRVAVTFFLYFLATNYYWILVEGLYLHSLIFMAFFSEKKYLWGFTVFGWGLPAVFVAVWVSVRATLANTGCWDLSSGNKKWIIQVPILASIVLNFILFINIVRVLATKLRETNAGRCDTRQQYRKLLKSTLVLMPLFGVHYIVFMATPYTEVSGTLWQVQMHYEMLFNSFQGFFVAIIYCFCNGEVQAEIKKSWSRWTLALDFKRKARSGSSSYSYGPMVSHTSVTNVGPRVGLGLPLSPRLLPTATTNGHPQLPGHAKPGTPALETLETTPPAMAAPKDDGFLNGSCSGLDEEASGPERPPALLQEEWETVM
How it was run: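 Saos-2 cells, grown two days after seeding at 50,000 cells/well, were exposed to peptide for 15 min at 37 °C in Tyrode's buffer with 0.1% BSA and 100 μM IBMX. After stopping with cold HCl, cAMP was measured by radioimmunoassay FlashPlate. EC50, pEC50, Hill slope and Emax came from a four-parameter sigmoidal fit.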

CYP2D6 = CYP2D6 (Homo sapiens, UniProt P10635); test: CYP2D6 inhibition in pooled human liver microsomes; assay type: in vitro ADME; parameters: Pooled human liver microsomes (HLM, final concentration 0.05 mg protein/mL); tissue BD Biosciences 452161; host or cells: pooled human liver microsomes; conditions: 10 μM compound, dextrorphan formation rate
How it was run: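 Pooled HLM (0.05 mg/mL) in 0.1 M KPi pH 7.4 with 5 μM dextromethorphan and 10 μM test compound, preincubated 5 min at 37 °C, then started with NADPH-regenerating system for 5 min. Dextrorphan quantified by LC/MS/MS; activity expressed as % of vehicle; <70% considered significant.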

CYP2D6, sequence (P10635 whole entry): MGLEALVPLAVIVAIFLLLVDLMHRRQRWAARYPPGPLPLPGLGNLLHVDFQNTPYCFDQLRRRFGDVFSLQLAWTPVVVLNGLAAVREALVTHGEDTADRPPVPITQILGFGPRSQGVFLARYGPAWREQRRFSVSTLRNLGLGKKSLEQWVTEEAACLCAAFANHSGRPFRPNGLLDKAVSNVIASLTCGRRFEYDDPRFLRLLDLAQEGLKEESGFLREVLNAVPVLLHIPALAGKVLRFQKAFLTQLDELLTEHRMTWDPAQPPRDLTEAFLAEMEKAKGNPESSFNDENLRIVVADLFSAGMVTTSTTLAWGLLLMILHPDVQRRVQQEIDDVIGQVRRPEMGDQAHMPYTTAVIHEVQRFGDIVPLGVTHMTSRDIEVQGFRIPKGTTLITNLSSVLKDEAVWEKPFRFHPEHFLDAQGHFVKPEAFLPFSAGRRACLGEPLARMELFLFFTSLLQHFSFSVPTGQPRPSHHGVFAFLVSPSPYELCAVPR

| SMILES | potency comparison in words (PTH receptor 1; cAMP) | EC50 (PTH receptor 1; cAMP) | Emax ± SEM [pmol/well] (PTH receptor 1) | potency compared to linear / non-stabilized counterparts, in words (Saos-2 PTH1R) | potency compared to linear / non-stabilized counterparts, in words (Saos-2 PTH1R; listed as 2) | potency compared to linear / non-stabilized counterparts, in words (Saos-2 PTH1R; listed as SEQ ID NO:2) | CYP2D6 activity (% of vehicle) (CYP2D6) | EC50 (Saos-2 PTH1R) | Emax ± SEM (Saos-2 PTH1R) |
| --- | --- | --- | --- | --- | --- | --- | --- | --- | --- |
| CC[C@H](C)[C@H](NC(=O)[C@H](CCC(=O)O)NC(=O)C(C)(C)NC(=O)[C@@H](NC(=O)C1(N)CCCC1)C(C)C)C(=O)N[C@@H](CCC(N)=O)C(=O)N[C@@H](CC(C)C)C(=O)N[C@@H](CCSC)C(=O)N[C@@H](Cc1c[nH]cn1)C(=O)N[C@@H](CCC(N)=O)C(=O)N[C@@H](CCCCNC(=N)N)C(=O)N[C@@H](C)C(=O)N[C@H]1CCCCNC(=O)C[C@@H](C(N)=O)NC(=O)[C@H](CC(N)=O)NC(=O)[C@H](CC(C)C)NC(=O)[C@H](Cc2c[nH]c3ccccc23)NC1=O [SEQ ID NO: 2, H-Ac5c-Val-Aib-Glu-Ile-Gln-Leu-Met-His-Gln-Har-Ala-Lys( )Trp-Leu-Asn-Asp( )-NH2] (H-[Ac5c]V[Aib]EIQLMHQ[hArg]AKWLND-NH2; lactam 13-17) | EC50 comparable to PTH(1-34); also recorded: significantly more potent than SEQ ID NO: 31, SEQ ID NO: 3 and SEQ ID NO: 42 | 1 nM | 4.9 ± 0.8 pmol/well | significantly higher potency | increased potencies | significantly higher potency | 67 % of vehicle | – | – |
| CC[C@H](C)[C@H](NC(=O)[C@H](CCC(=O)O)NC(=O)C(C)(C)NC(=O)[C@@H](NC(=O)C1(N)CCCC1)C(C)C)C(=O)N[C@@H](CCC(N)=O)C(=O)N[C@@H](CC(C)C)C(=O)N[C@@H](CCSC)C(=O)N[C@@H](Cc1c[nH]cn1)C(=O)N[C@@H](CCC(N)=O)C(=O)N[C@@H](CCCCNC(=N)N)C(=O)N[C@@H](C)C(=O)N[C@@H](CCCCN)C(=O)N[C@@H](Cc1c[nH]c2ccccc12)C(=O)N[C@@H](CC(C)C)C(=O)N[C@@H](CC(N)=O)C(=O)N[C@@H](CC(N)=O)C(N)=O [SEQ ID NO: 3, H-Ac5c-Val-Aib-Glu-Ile-Gln-Leu-Met-His-Gln-Har-Ala-Lys-Trp-Leu-Asn-Asn-NH2] (H-[Ac5c]V[Aib]EIQLMHQ[hArg]AKWLNN-NH2) | – | 2.51 nM | 5.5 ± 0.9 pmol/well | – | – | – | 21 % of vehicle | 9.12 nM | 1.06 ± 0.06 |
| CC[C@H](C)[C@H](NC(=O)[C@H](CCC(=O)O)NC(=O)C(C)(C)NC(=O)[C@@H](NC(=O)C1(N)CCCC1)C(C)C)C(=O)N[C@@H](CCC(N)=O)C(=O)N[C@@H](CC(C)C)C(=O)N[C@@H](CCSC)C(=O)N[C@@H](Cc1c[nH]cn1)C(=O)N[C@@H](CCC(N)=O)C(=O)N[C@@H](CCCCNC(=N)N)C(=O)N[C@@H](C)C(=O)N[C@H]1CCCCNC(=O)C[C@@H](C(N)=O)NC(=O)[C@H](CC(C)C)NC(=O)[C@H](Cc2c[nH]c3ccccc23)NC1=O [SEQ ID NO: 30, H-Ac5c-Val-Aib-Glu-Ile-Gln-Leu-Met-His-Gln-Har-Ala-Lys( )-Trp-Leu-Asp( )-NH2] (H-[Ac5c]V[Aib]EIQLMHQ[hArg]AKWLD-NH2; lactam 13-16) | – | 10 nM | 5.0 ± 0.2 pmol/well | – | – | – | 83 % of vehicle | 81.3 nM | 1.04 ± 0.05 |
